# Source: PubChem BioAssay (NCI)
#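 Following 48 hours of exposure in 96-well plates, responses at five concentrations were used to interpolate endpoints linearly. TGI: concentration producing complete growth inhibition.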
# Legend:
# Assay in all cases: DTP human tumour cell line panel, 48 h
# [1] = system: 786-0 renal
# [2] = system: A498 renal
# [3] = system: A549 NSCLC
# [4] = system: ACHN renal
# [5] = system: CAKI-1 renal
# [6] = system: CCRF-CEM leukemia
# [7] = system: DLD-1 colon
# [8] = system: DMS 114 small cell lung
# [9] = system: DMS 273 small cell lung
# [10] = system: EKVX NSCLC
# [11] = system: HCC-2998 colon
# [12] = system: HCT-116 colon
# [13] = system: HCT-15 colon
# [14] = system: HL-60(TB) leukemia
# [15] = system: HOP-62 NSCLC
# [16] = system: HT29 colon
# [17] = system: IGROV1 ovarian
# [18] = system: K-562 leukemia
# [19] = system: KM12 colon
# [20] = system: KM20L2 colon
# [21] = system: LXFL 529 NSCLC
# [22] = system: M14 melanoma
# [23] = system: MALME-3M melanoma
# [24] = system: MOLT-4 leukemia
# [25] = system: NCI-H226 lung
# [26] = system: NCI-H23 lung
# [27] = system: NCI-H460 lung
# [28] = system: OVCAR-3 ovarian
# [29] = system: OVCAR-4 ovarian
# [30] = system: OVCAR-5 ovarian
# [31] = system: OVCAR-8 ovarian
# [32] = system: RPMI-8226 leukemia
# [33] = system: RXF 393 renal
# [34] = system: SF-295 CNS
# [35] = system: SF-539 CNS
# [36] = system: SK-MEL-2 melanoma
# [37] = system: SK-MEL-28 melanoma
# [38] = system: SK-MEL-5 melanoma
# [39] = system: SK-OV-3 ovarian
# [40] = system: SNB-75 CNS
# [41] = system: SNB-78 CNS
# [42] = system: SW-620 colon
# [43] = system: TK-10 renal
# [44] = system: U251 CNS
# [45] = system: UACC-257 melanoma
# [46] = system: UACC-62 melanoma
# [47] = system: UO-31 renal
# [48] = system: XF 498 CNS
# [49] = system: COLO 205 colon
# [50] = system: HOP-18 NSCLC
# [51] = system: HOP-92 NSCLC
# [52] = system: LOX IMVI melanoma
# [53] = system: NCI-H522 lung
# [54] = system: SF-268 CNS
# [55] = system: SN12C renal
# [56] = system: SNB-19 CNS
# [57] = system: SR leukemia
structure (smiles),measurement,setting,value
CCOC(=O)C(C)(c1c(C)[nH]c2ccccc12)c1c(C)[nH]c2ccccc12,TGI,[1],43 µM
same,TGI,[2],36.6 µM
same,TGI,[3],49.7 µM
same,TGI,[4],56.6 µM
same,TGI,[5],45.4 µM
same,TGI,[6],58 µM
same,TGI,[7],75.9 µM
same,TGI,[8],41.6 µM
same,TGI,[9],31 µM
same,TGI,[10],> 100 µM
same,TGI,[11],45.2 µM
same,TGI,[12],25 µM
same,TGI,[13],32.5 µM
same,TGI,[14],37.6 µM
same,TGI,[15],43.6 µM
same,TGI,[16],30.3 µM
same,TGI,[17],51.3 µM
same,TGI,[18],42.4 µM
same,TGI,[19],33.2 µM
same,TGI,[20],31 µM
same,TGI,[21],77.3 µM
same,TGI,[22],29.8 µM
same,TGI,[23],43 µM
same,TGI,[24],42.9 µM
same,TGI,[25],32.9 µM
same,TGI,[26],37.5 µM
same,TGI,[27],38.7 µM
same,TGI,[28],34 µM
same,TGI,[29],32 µM
same,TGI,[30],35.5 µM
same,TGI,[31],81.7 µM
same,TGI,[32],46.2 µM
same,TGI,[33],25.8 µM
same,TGI,[34],29 µM
same,TGI,[35],39.1 µM
same,TGI,[36],38.4 µM
same,TGI,[37],30.5 µM
same,TGI,[38],31.1 µM
same,TGI,[39],52.9 µM
same,TGI,[40],48.6 µM
same,TGI,[41],49.2 µM
same,TGI,[42],40.8 µM
same,TGI,[43],45.6 µM
same,TGI,[44],33.4 µM
same,TGI,[45],28 µM
same,TGI,[46],29.6 µM
same,TGI,[47],35 µM
same,TGI,[48],39.4 µM
C1COCCSC2=C(SCCO1)SC(=C1SC3=C(SCCOCCOCCS3)S1)S2,TGI,[1],> 100 µM
same,TGI,[2],> 100 µM
same,TGI,[3],> 100 µM
same,TGI,[4],> 100 µM
same,TGI,[5],> 100 µM
same,TGI,[6],> 100 µM
same,TGI,[49],> 100 µM
same,TGI,[7],> 100 µM
same,TGI,[8],> 100 µM
same,TGI,[9],> 100 µM
same,TGI,[10],> 100 µM
same,TGI,[11],> 100 µM
same,TGI,[12],> 100 µM
same,TGI,[13],> 100 µM
same,TGI,[14],> 100 µM
same,TGI,[50],> 100 µM
same,TGI,[15],> 100 µM
same,TGI,[51],> 100 µM
same,TGI,[16],> 100 µM
same,TGI,[17],> 100 µM
same,TGI,[18],> 100 µM
same,TGI,[19],> 100 µM
same,TGI,[20],> 100 µM
same,TGI,[52],> 100 µM
same,TGI,[21],> 100 µM
same,TGI,[22],> 100 µM
same,TGI,[23],> 100 µM
same,TGI,[24],> 100 µM
same,TGI,[25],> 100 µM
same,TGI,[26],> 100 µM
same,TGI,[27],> 100 µM
same,TGI,[53],> 100 µM
same,TGI,[28],> 100 µM
same,TGI,[29],> 100 µM
same,TGI,[30],> 100 µM
same,TGI,[31],> 100 µM
same,TGI,[33],> 100 µM
same,TGI,[54],> 100 µM
same,TGI,[34],> 100 µM
same,TGI,[35],> 100 µM
same,TGI,[36],> 100 µM
same,TGI,[37],> 100 µM
same,TGI,[38],> 100 µM
same,TGI,[39],> 100 µM
same,TGI,[55],> 100 µM
same,TGI,[56],> 100 µM
same,TGI,[40],51.4 µM
same,TGI,[41],> 100 µM
same,TGI,[57],> 100 µM
same,TGI,[42],> 100 µM
same,TGI,[43],> 100 µM
same,TGI,[44],> 100 µM
same,TGI,[45],> 100 µM
same,TGI,[46],> 100 µM
same,TGI,[47],> 100 µM
same,TGI,[48],73.3 µM
CCc1cccc(C)c1NC(=O)CC1C(=O)Nc2ccccc2S1=O (configuration not stated),TGI,[1],> 100 µM
same,TGI,[3],> 100 µM
same,TGI,[4],> 100 µM
same,TGI,[5],> 100 µM
same,TGI,[49],> 100 µM
same,TGI,[7],> 100 µM
same,TGI,[9],> 100 µM
same,TGI,[11],> 100 µM
same,TGI,[12],> 100 µM
same,TGI,[13],> 100 µM
same,TGI,[14],74.9 µM
same,TGI,[15],> 100 µM
same,TGI,[51],> 100 µM
same,TGI,[16],> 100 µM
same,TGI,[18],> 100 µM
same,TGI,[19],> 100 µM
same,TGI,[20],90.4 µM
same,TGI,[52],> 100 µM
same,TGI,[21],> 100 µM
same,TGI,[22],> 100 µM
same,TGI,[23],> 100 µM
same,TGI,[24],> 100 µM
same,TGI,[25],> 100 µM
same,TGI,[26],> 100 µM
same,TGI,[27],> 100 µM
same,TGI,[53],> 100 µM
same,TGI,[28],> 100 µM
same,TGI,[29],> 100 µM
same,TGI,[30],> 100 µM
same,TGI,[31],> 100 µM
same,TGI,[32],> 100 µM
same,TGI,[54],> 100 µM
same,TGI,[34],97.6 µM
same,TGI,[35],79.2 µM
same,TGI,[36],> 100 µM
same,TGI,[37],> 100 µM
same,TGI,[55],> 100 µM
same,TGI,[56],> 100 µM
same,TGI,[40],> 100 µM
same,TGI,[41],> 100 µM
same,TGI,[57],> 100 µM
same,TGI,[42],> 100 µM
same,TGI,[43],> 100 µM
same,TGI,[44],55.4 µM
same,TGI,[45],86.5 µM
same,TGI,[47],> 100 µM
same,TGI,[48],> 100 µM
C=CCCC1(C)CCCNC1=S (configuration not stated),TGI,[2],> 100 µM
same,TGI,[3],> 100 µM
same,TGI,[4],> 100 µM
same,TGI,[6],> 100 µM
same,TGI,[49],> 100 µM
same,TGI,[7],> 100 µM
same,TGI,[8],> 100 µM
same,TGI,[9],> 100 µM
same,TGI,[10],> 100 µM
same,TGI,[11],> 100 µM
same,TGI,[12],> 100 µM
same,TGI,[13],> 100 µM
same,TGI,[14],> 100 µM
same,TGI,[50],> 100 µM
same,TGI,[15],> 100 µM
same,TGI,[51],> 100 µM
same,TGI,[16],> 100 µM
same,TGI,[17],> 100 µM
same,TGI,[18],> 100 µM
same,TGI,[19],> 100 µM
same,TGI,[20],> 100 µM
same,TGI,[52],> 100 µM
same,TGI,[22],> 100 µM
same,TGI,[23],> 100 µM
same,TGI,[24],> 100 µM
same,TGI,[25],> 100 µM
same,TGI,[26],> 100 µM
same,TGI,[27],> 100 µM
same,TGI,[28],> 100 µM
same,TGI,[29],> 100 µM
same,TGI,[30],> 100 µM
same,TGI,[31],> 100 µM
same,TGI,[32],> 100 µM
same,TGI,[33],> 100 µM
same,TGI,[34],> 100 µM
same,TGI,[35],> 100 µM
same,TGI,[36],> 100 µM
same,TGI,[37],> 100 µM
same,TGI,[38],> 100 µM
same,TGI,[39],> 100 µM
same,TGI,[55],> 100 µM
same,TGI,[56],> 100 µM
same,TGI,[40],> 100 µM
same,TGI,[57],> 100 µM
same,TGI,[42],> 100 µM
same,TGI,[43],> 100 µM
same,TGI,[44],> 100 µM
same,TGI,[45],> 100 µM
same,TGI,[46],> 100 µM
same,TGI,[47],> 100 µM
same,TGI,[48],> 100 µM
